Measured values as given in patent US20230337668A1, “COMPOSITION” (GIVAUDAN SA, priority 2020, published 2023).

Tested on: Bacillus subtillis
Test: microorganisms counting in inoculated fish matrix (fish model)
Conditions: D14, 25° C., positive control at 0.3%, average of two determinations
Method: Fish matrix was made of fish and water (50/50), without preservatives. The matrix was homogenized in a blade mixer grinder and then sterilized at 121° C. for 20 minutes, prior the tests.
Blends were added at 0.5 % into the matrix. Matrices without preservatives (0.5 % of NaCl 0.9%) and matrices with conventional chemical preservatives (0.3% of sodium lactate or potassium nitrite, separately) were used as negative and positive control, respectively.
Each matrix type was portioned into sterile flasks and inoculated with 3 Log CFU/g of different microorganisms, separately. Each flask corresponds to one sample at a given date of analysis.
The inoculated matrices were incubated at 25° C.
The counting of the microorganisms was determined in specific agar medium.

| Structure (SMILES) | Bacillus subtillis spores (Bacillus subtillis totaux - Bacillus subtillis vegetative cells) | Bacillus subtillis totaux (vegetative cells + spores) |
| --- | --- | --- |
| O=N[O-].[K+] [Potassium nitrite] | 2.39 Log CFU/g | 2.60 Log CFU/g |
| CC(O)C(=O)[O-].[Na+] (stereo not shown) [Sodium lactate] | 2.35 Log CFU/g | 2.90 Log CFU/g |
